Reference: paper PMC7034088, “Effect of verapamil on the pharmacokinetics of hydroxycamptothecin and its potential mechanism” (Pharmaceutical Biology, 2020)
Like-named read-outs stand apart in the source and are kept apart here.

Legend:
[1] = In vivo pharmacokinetic study of oral HCPT in rats with or without verapamil pre-treatment; settings: male, Sprague-Dawley, rat, plasma, 50 mg/kg, HCPT 50 mg/kg intragastric/oral, n = 6, Mean ± S.D.; for CL/F: read-out: CLz/F (oral clearance) (converted)
Experimental: Male Sprague–Dawley rats weighing 230–250 g were provided by Shanghai SLAC Laboratory Animal Co., Ltd (Shanghai, China). Rats were bred in a breeding room at 25 °C with 60 ± 5% humidity and a 12 h dark-light cycle. Tap water and normal chow were given ad libitum. All of the experimental animals were housed under the above conditions, for a 3-day acclimation period and fasted overnight before the experiments. All experimental procedures and protocols were reviewed and approved by the Animal Care and Use Committee of China–Japan Union Hospital of Jilin University and were in accordance with the National Institutes of Health guidelines regarding the principles of animal care.
Rats were divided into two groups of six animals each, with or without pre-treatment of verapamil. The pre-treatment of verapamil on the test group was at a dose of 10 mg/kg/day (dissolved directly in normal saline containing 0.5% methylcellulose at a concentration of 2 mg/mL) for 7 days. Next, 50 mg/kg HCPT was administrated orally. Blood samples (200 μL) were collected into heparinized tubes via the oculi choroidal vein at 0.083, 0.33, 0.5, 1, 2, 4, 6, 8, 10, 12, 24, and 36 h after the oral administration of […]. The blood samples were centrifuged at 3500 rpm for 5 min. The plasma samples that were obtained were stored at −40 °C until analysis.
To obtain 100 μL aliquot of plasma sample, 20 μL methanol and 180 μL internal standard methanol solution (2 ng/mL) were added and vortexed for 60 s to mix in a 1.5 mL polypropylene tube, and were centrifuged at 12,000 rpm for 10 min. The supernatant was removed into an injection vial, and a 3 μL aliquot was injected into the LC-MS/MS system for analysis.
The determination of HCPT was performed on an Agilent 1290 series liquid chromatography system and an Agilent 6470 triple-quadruple mass spectrometer (Palo Alto, CA). The HPLC/MS conditions and sample preparation were basically according to a validated HPLC method described before (Zhang et al. [2019]). The chromatographic analysis of HCPT was performed on a Waters X-Bridge C18 column (3.0 × 100 mm, i.d.; 3.5 μm, Waters Corporation, Milford, MA ) at room temperature (25 °C). The mobile phase was water (containing 0.1% formic acid) and acetonitrile (30:70, v: v) with isocratic elution at a flow rate of 0.2 mL/min, and the analysis time was 4 min.
The mass scan mode was positive MRM mode. The precursor ion and product ion are m/z 365.20→321.10 for HCPT and m/z 349.25→305.15 for IS. The collision energy for HCPT and IS were 30 and 20 eV, respectively. The MS/MS conditions were optimized as follows: fragmentor, 110 V; capillary voltage, 3.5 kV; Nozzle voltage, 500 V; nebulizer gas pressure (N2), 40 psig; drying gas flow (N2), 10 L/min; gas temperature, 350 °C; sheath gas temperature, 400 °C; sheath gas flow, 11 L/min.
Pharmacokinetic parameters, including the area under the plasma concentration–time curve (AUC), maximal plasma concentration (Cmax), the time for the maximal plasma concentration (Tmax), and the mean residence time (MRT), were calculated using the DAS 3.0 pharmacokinetic software (Chinese Pharmacological Association, Anhui, China).

[2] = Metabolic stability of HCPT in rat liver microsomes with or without verapamil; assay type: in vitro ADME; settings: for microsomal CLint at 1 µM: read-out: intrinsic clearance rate
Experimental: The metabolic stability of HCPT was investigated in rat liver microsomes with or without verapamil. The detailed methods were similar to those reported before (Wang et al. [2017]; Yan et al. [2017]). Briefly, 30 μL rat liver microsome (20 mg/mL), 12 μL HCPT solution (100 μM) and 1113 μL PBS buffer (0.1 M, pH 7.4) were added to the centrifuge tubes on ice. After a 5-min preincubation at 37 °C, the NADPH-generating system (45 μL) was added into the microsomal suspension to initiate the reaction. Meanwhile, the effects of verapamil or ketoconazole (a positive CYP3A4 inhibitor) on the metabolic stability of HCPT were investigated by adding 10 μM of verapamil or ketoconazole (12 μL, final concentration of 0.1 μM) to rat liver microsomes and preincubating them for 30 min at 37 °C, followed by the addition of NADPH-generating system. Aliquots of 100 μL were collected from the reaction volumes at 0.083, 0.167, 0.33, 0.5, 1, 2, 4, 8, 12, 24, and 36 h after the addition of HCPT, and 200 μL ice-cold acetonitrile containing esculin was added to terminate the reaction. All the experiments were performed in triplicate. The subsequent sample preparation method was the same as the plasma sample preparation method, and the concentration of HCPT was determined by LC-MS.
The in vitro half-life (t1/2) was obtained using the equation: t1/2 = 0.693/k; V (μL/mg) = volume of incubation (μL)/protein in the incubation (mg); intrinsic clearance (Clint) (μL/min/mg protein) = V × 0.693/t1/2.

[3] = Bidirectional transport of HCPT in the Caco-2 cell transwell model with or without verapamil; settings: human; for efflux ratio at 2 µM: Caco-2, pH 7.4, efflux ratio, Caco-2 transwell, HCPT 2 μM
Experimental: (§1) The Caco-2 cell line was obtained from the American Type Culture Collection (Manassas, VA), and it was performed according to the previous study (Liu et al. [2019]). The Caco-2 cells were cultured in DMEM high glucose medium containing 15% FBS, 1% NEAA, and 100 U/mL penicillin and streptomycin. The cells were cultured at 37 °C with 5% CO2. For transport studies, the cells at passage 40 were seeded on transwell polycarbonate insert filters (1.12 cm^2 surface, 0.4 μm pore size, 12 mm diameter; Corning Co-star Corporation, Corning, MA) in 12-well plates at a density of 1 × 10^5 cells/cm^2. Cells were allowed to grow for 21 days. For the first seven days, the medium was replaced every two days, and then daily. The transepithelial electrical resistance (TEER) of the monolayer cells was measured using Millicell ERS-2 (Millipore Corporation, Billerica, MA), and TEER exceeding 400 Ω·cm^2 was used for the flux experiment. […] The alkaline phosphatase activity was validated using an Alkaline Phosphatase Assay Kit. The qualified monolayers were used for transport studies.
(§2) The Caco-2 cell transwell model was employed to investigate the transport of HCPT in the presence or absence of verapamil. The cell monolayers were rinsed twice with warm (37 °C) Hanks’ balanced salt solution (HBSS) before the transport experiments. After that, the cells were incubated at 37 °C for 20 min. HCPT was added to either apical or basolateral side to incubate with the cell monolayers in fresh incubation medium for the indicated times at 37 °C, after preincubation. The volume of incubation medium on the apical and basolateral sides was 0.5 mL and 1.5 mL, respectively, and a 100 μL aliquot of the incubation solution was withdrawn at the indicated time points from the receiver compartment and replaced with the same volume of fresh pre-warmed HBSS buffer. The permeability of HCPT (2 μM) in all of the above conditions for both directions, i.e., from the apical (AP) side to the basolateral (BL) side and from the BL side to the AP side, was measured after incubation for 30, 60, 90, and 120 min at 37 °C. In addition, the efflux activity of P-gp was validated using a typical P-gp substrate digoxin (25 μM).
(§3) The apparent permeability coefficient (Papp) was calculated using the equation of Artursson and Karlsson: Papp=(ΔQ/Δt)×[1/(A×C0)] where Papp is the apparent permeability coefficient (cm/s), ΔQ/Δt (μmol/s) is the rate at which the compound appears in the receiver chamber, C0 (μmol/L) is the initial concentration of the compound in the donor chamber, and A (cm^2) represents the surface area of the cell monolayer. Data were collected from three separate experiments, and each was performed in triplicate.

Caco-2 cell monolayers = assay: as above; settings: Caco-2 transwell, digoxin 25 μM, with addition of verapamil
Experimental: as §1, §2, §3

P-gp = assay: as above; settings: human, Caco-2, efflux ratio, Caco-2 transwell, digoxin 25 μM (P-gp substrate validation), without verapamil
Experimental: as §1, §2, §3

[4] = pre-treatment of verapamil 10 mg/kg/day for 7 days
[5] = pH 7.4, with verapamil, final concentration 0.1 µM, in the presence of verapamil (preincubation 30 min at 37 °C)

CC[C@@]1(O)C(=O)OCc2c1cc1n(c2=O)Cc2cc3cc(O)ccc3nc2-1 [HCPT, Hydroxycamptothecin]
AUC(0-t) ([1]; control (no verapamil)): 660 ± 100 ng·h/mL
Cmax ([1]; control (no verapamil)): 92 ± 11.3 ng/mL
MRT ([1]; control (no verapamil)): 9.61 ± 0.55 h
Tmax ([1]; control (no verapamil)): 1.12 ± 0.14 h
half-life ([1]; control (no verapamil)): 17.7 ± 3.6 h
CL/F ([1]; control (no verapamil)): 1060 mL/min/kg
AUC(0-t) [1, 4]: 1140 ± 290 ng·h/mL
Cmax [1, 4]: 125 ± 13.5 ng/mL
MRT [1, 4]: 11.4 ± 0.78 h
Tmax [1, 4]: 0.89 ± 0.09 h
half-life [1, 4]: 23 ± 6.71 h
CL/F [1, 4]: 549 mL/min/kg
half-life at 1 µM [2, 5]: 0.807 ± 0.0085 h
microsomal CLint at 1 µM [2, 5]: 28.6 ± 0.3 µL/min/mg
half-life at 1 µM ([2]; pH 7.4, without verapamil): 0.585 ± 0.00533 h
microsomal CLint at 1 µM ([2]; pH 7.4, without verapamil): 39.5 ± 0.42 µL/min/mg
Papp B→A at 2 μM ([3]; Caco-2, pH 7.4): 0.205 ×10⁻⁶ cm/s
efflux ratio at 2 µM ([3]; in the presence of verapamil): 1.21
efflux ratio at 2 µM ([3]; without verapamil): 1.82

C[C@H]1O[C@@H](O[C@H]2[C@@H](O)C[C@H](O[C@H]3[C@@H](O)C[C@H](O[C@H]4CC[C@@]5(C)[C@H](CC[C@@H]6[C@@H]5C[C@@H](O)[C@]5(C)[C@@H](C7=CC(=O)OC7)CC[C@]65O)C4)O[C@@H]3C)O[C@@H]2C)C[C@H](O)[C@@H]1O [digoxin]
efflux ratio, effect of addition of verapamil (Caco-2 cell monolayers): abrogated it
efflux ratio at 25 µM (P-gp): 11
